Laboratory results: US20090082303A1, “DRUG FOR PREVENTING AND TREATING ATHEROSCLEROSIS” (Takeda Pharmaceutical Company Limited, priority 2004, published 2009)

Tests used:
GM3 synthase = assay: Effect of shRNA expressing retrovirus on GM3 synthase activity in RAW264.7 strain; type: cell-based; details: crude enzyme from retrovirus-infected RAW264.7; uninfected RAW264.7 = 1
Protocol: RAW264.7 strain purchased from ATCC (Raschke W C, et al., Cell, Vol. 15, pp. 261-267, 1978) was suspended in 10% FBS-DMEM culture medium to be 1×10^5 cells/ml, and was seeded on 12-well plate at 1 ml/well. After overnight incubation at 37° C. in the presence of 5% CO2, retrovirus, which expressed sequences for shRNA (short hairpin RNA), SHI (SEQ ID NO: 5) or SH3 (SEQ ID NO: 6), was infected to RAW264.7 strain. After overnight culture, the medium was replaced with 10% FBS-DMEM culture medium and the cells were cultured to confluent state. Using these cells, in accordance with the method in EXAMPLE 4, crude enzyme was prepared to assay GM3 synthase activity. Based on the value of the enzyme activity from RAW264.7 strain as 1 (one), the value from the virus-infected cells was calculated as relative value.

RAW264.7 strain = assay: Effect of GM3 synthase knock-down on cholesterol efflux from RAW264.7 strain; type: cell-based; details: [3H] cholesterol efflux to Apolipoprotein A1 20 μg/ml, 6 hours; uninfected RAW264.7 = 1
Protocol: RAW264.7 strain infected with the retrovirus that expresses shRNA targeting GM3 synthase was suspended in 10% FBS-DMEM culture medium to be 1.5-2×10^6 cells/ml and was seeded on 12-well plate at 1 mL/well. After overnight culture at 37° C. in the presence of 5% CO2, the cells were washed with PBS. Then, after adding 1% FBS-DMEM culture medium, which contained [^3H] cholesterol-labeled βVLDL (final concentration: 150 μg of total cholesterol/ml), the cells were cultured for overnight. The cells were washed twice with 0.2% BSA-PBS and further washed with PBS. After replacing the medium with 0.1% BSA-DMEM culture medium, the cells were cultivated for one day. After replacing 20 μg/ml of Apolipoprotein A1 containing 0.1% BSA-DMEM culture medium, the cells were cultured for 6 hours. Cultured supernatant was collected, and radioactivity of the supernatant, from which cell debris was removed by centrifugation, was measured with the liquid scintillation counter. […] After incubation at 37° C. for overnight, radioactivity of the cell lysate was measured with the liquid scintillation counter. A ratio of the radioactivity of the culture supernatant to the summation of the radioactivity of the culture supernatant and the cell lysate was calculated. […] Based on the value from RAW264.7 strain as 1 (one), the value from the virus-infected cells was calculated as relative value.

human GM3 synthase [1] = assay: GM3 synthase inhibitor screening (1): BODIPY-lactosylceramide, HPTLC fluorescence; type: biochemical; details: 73 without CMP
Protocol: (§1) The cell line stably expressing human GM3 synthase, which was established by transducing human GM3 synthase gene into RAW264.7 strain purchased from ATCC (Raschke W C, et al., Cell, Vol. 15, pp. 261-267, 1978) with retrovirus vector, was cultured in 10% FBS-DMEM culture medium. After culturing to confluent state, the cells were washed once with PBS and harvested. After weighing wet cells, the cells were suspended in 3 (three) volumes of buffer solution (15 mM sodium cacodilate (pH6.5), 5% glycerol). By ultrasonication, the cells were disrupted, and the supernatant, of which cell debris was excluded by centrifugation, was used as a crude enzyme solution. Protein concentration of the crude enzyme solution was determined using BCA protein assay kit(BIO RAD, Inc.).
BODIPY-lactosylceramide (Molecular Probes, Inc.) in chloroform solution was dried in Eppendorf tube under nitrogen flow. 4× reaction buffer solution consisting of 400 mM sodium cacodylate (pH6.5), 1.6% Triton X-100, 40 mM MgCl2 and 8 mM 2,3 dehydro-2-deoxy-N-acetylneuraminic acid was added to the tube. After vortexing, it was sufficiently dissolved by ultrasonication for 20 seconds in sonicator bath and was used as a substrate solution.
Ten μl of substrate solution, 10 μl of 800 μM CMP-sialic acid, 10 μl of crude enzyme solution and 10 μl of sample were admixed and followed by incubating at 37° C. for one hour. As a sample, cytidine mono phosphate (CMP), wherein the inhibitory effect to GM3 synthase activity is reported, was used (Biochem. Biophys. Res. Commun., Vol. 193, pp. 585-590, 1993). One milliliter of chloroform/methanol mixture (2:1) was added to the reaction mixture to terminate the reaction. After mixing, ultrasonication was done for 30 minutes in sonicator bath. Supernatant was recovered by centrifugation at 15,000 rpm for 5 minutes. Pellet was further washed with 200 μl of chloroform/methanol mixture (2:1) and recovered its supernatant by centrifugation at 15,000 rpm for 5 minutes. Collected supernatant was dried under nitrogen flow, and residue was re-suspended in 50 μl of chloroform/methanol mixture (2:1). Twenty μl of the supernatant isolated by centrifugation was spotted on HPTLC (Merck, Inc.) and was developed with solvent system consisting of chloroform/methanol/0.2% CaCl2 aqueous solution (50:45:10). After development, fluorescent intensity was measured with LAS-1000 (Fuji Film, Inc.). Fluorescent intensity of both the substrate, BODIPY-lactosylceramide and the product, BODIPY-GM3 was measured, respectively to calculate a ratio of GM3 produced to lactosylceramide added. The activity was calculated as an amount of GM3 (nmol) produced/hour/mg of protein in the crude enzyme solution.
GM3 synthase activity(nmol/mg/hr)=BODIPY-GM3(AU)/(BODIPY-lactosylceramide(AU)+BODIPY-GM3(AU))×10 nmol×1/(protein weight (mg)×reaction time(hr))
AU means a numerical value determined with LAS-1000.

human GM3 synthase [2] = assay: GM3 synthase inhibitor screening (2): Phospholipid FlashPlate, CMP-[14C] sialic acid; type: biochemical; details: without CMP = 1
Protocol: as §1
Coating of lactosylceramide, the substrate for GM3 synthase to Phospholipid FlashPlate (PerkinElmer, Inc.) was carried out by the method as described below. 200 μM lactosylceramide-reaction buffer solution consisting of 100 mM sodium cacodylate (pH6.5) and 10 mM MgCl2 was dispensed on the plate at 200 μl/well and followed by standing at room temperature for overnight. After washing the plate once with PBS, 30 μM lactosylceramide-reaction buffer solution was dispensed at 70 μl/well.
Ten microliter of the crude enzyme solution prepared by the procedure in EXAMPLE 4, 10 μl of CMP solution and 10 μl of 500 μM CMP-[^14C] sialic acid (Amersham; 5×10^4 cpm/well) were admixed and incubated at 37° C. for 3 (three) hours. Radioactivity was measured by Topcount (PerkinElmer, Inc.).
A well, in which buffer solution for cell suspension was added instead of the crude enzyme was used as a blank. A value obtained by subtract the cpm value of blank well from the cpm value of sample well was used as a value for enzyme activity.
Relative value was calculated based on the conditions without treatment of CMP as 1 (one).

mouse GM3 synthase = assay: Effect of IFN-γ on expression of mouse GM3 synthase in mouse peritoneal macrophage cells (TaqMan PCR); type: cell-based; details: 24 hours, GAPDH internal standard, ΔΔCt, without IFN-γ = 1
Protocol: In accordance with the method by Hakamada et al. [Jikken-igaku (Experimental Medicine), Supplementary Volume, Vol. 14, No. 12, “Junnkan Kenkyu Protocol (Protocol for study on circulation)”, pp. 49-52, 1996], from C57BL/6j mouse after the intraperitoneal injection of thioglycolate, peritoneal macrophage was prepared. The cells were suspended in 10% FBS-DMEM culture medium to be 1.5-2×10^6 cells/mL, and were seeded on 12-well plate at 1 mL/well. After overnight culture at 37° C. in the presence of 5% CO2, the cells were washed with PBS. The 1% FBS-DMEM culture medium containing mouse recombinant IFN-γ at prescribed concentration was added to the cells, and cultivation was performed for 24 hours.
After washing the cells once with PBS, using RNeasy Mini Kit (QIAGEN) total RNA was prepared. Subsequently, using TaqMan Reverse Transcription Reagents (Applied Biosystems) cDNA was prepared. By TaqMan PCR method Using TaqMan Universal PCR Master Mix (Applied Biosystems), the expression level of GM3 synthase was quantified. As TaqMan probe and primers for mouse GM3 synthase, Assays-on-Demand (Mm00488232_ml) supplied from Applied Biosystems was used.
(§2) In quantification, an expression level of GAPDH was used as internal standard. By ΔΔCt method, relative value was calculated based on the conditions without treatment of IFN-γ as 1 (one).

human GM3 synthase [3] = assay: Effect of IFN-γ on expression of human GM3 synthase in THP-1 cells (TaqMan PCR); type: cell-based; details: 24 hours, THP-1 macrophage-like cells, without IFN-γ = 1
Protocol: THP-1 cells suspended in RPMI-1640 culture medium containing phorbol 12-myristeate 13-acetate (final concentration: […]), in which 10% FBS, 25 mM HEPES and Penicillin/Streptomycin were comprised, were seeded on 24-well plate at 1.0×10^6 cells/well and treated, for 3 (three) days to differentiate into macrophage-like cells. After washing the cells with PBS, RPMI-1640 culture medium containing human recombinant IFN-γ at a prescribed concentration was added to the cells. Subsequently, the cells were cultured for 24 hours.
As TaqMan probe and primers for human GM3 synthase, Assays-on-Demand (Hs00187405 ml) supplied from Applied Biosystems was used.
as §2

SH1: retrovirus expressing shRNA (short hairpin RNA) sequence SEQ ID NO: 5 targeting GM3 synthase (GAAGACCCAGCTTGTTAATGTGTGCTGTCCATTAACAAGCTGGGTCTTCTTTTT)
GM3 synthase activity (relative value) (GM3 synthase): 0.3
cholesterol transporting activity (relative value) (RAW264.7 strain): 1.3

Nc1ccn([C@@H]2O[C@H](COP(=O)(O)O)[C@@H](O)[C@H]2O)c(=O)n1 [CMP, cytidine mono phosphate]
GM3 synthase activity (human GM3 synthase [1]; CMP 0.1 mM): 46 nmol/mg/h
GM3 synthase activity (human GM3 synthase [1]; CMP 0.3 mM): 27 nmol/mg/h
GM3 synthase activity (human GM3 synthase [1]; CMP 1 mM): 12 nmol/mg/h
GM3 synthase activity (human GM3 synthase [1]; CMP 3 mM): 5 nmol/mg/h
GM3 synthase activity (human GM3 synthase [1]; CMP 10 mM): 7 nmol/mg/h
GM3 synthase activity (relative value) (human GM3 synthase [2]; CMP 0.04 mM): 1.01
GM3 synthase activity (relative value) (human GM3 synthase [2]; CMP 0.12 mM): 0.73
GM3 synthase activity (relative value) (human GM3 synthase [2]; CMP 0.4 mM): 0.58
GM3 synthase activity (relative value) (human GM3 synthase [2]; CMP 1.2 mM): 0.32
GM3 synthase activity (relative value) (human GM3 synthase [2]; CMP 4 mM): 0.28

SH3: retrovirus expressing shRNA (short hairpin RNA) sequence SEQ ID NO: 6 targeting GM3 synthase (GCCAATGATTTGTTCGTTAGTGTGCTGTCCTAACGAACAAATCATTGGCTTTTT)
GM3 synthase activity (relative value) (GM3 synthase): 0.5
cholesterol transporting activity (relative value) (RAW264.7 strain): 1.1

mIFN-γ: mouse recombinant IFN-γ, known as the atherogenic cytokine
Expression (mouse GM3 synthase mRNA, relative value) (mouse GM3 synthase; mIFN-γ 1 U/mL): 4
Expression (mouse GM3 synthase mRNA, relative value) (mouse GM3 synthase; mIFN-γ 10 U/mL): 25

B1: hIFN-γ: human recombinant IFN-γ (protein, UniProt P01579 24-161, looked up)
Interferon gamma: QDPYVKEAENLKKYFNAGHSDVADNGTLFLGILKNWKEESDRKIMQSQIVSFYFKLFKNFKDDQSIQKSVETIKEDMNVKFFNSNKKKRDDFEKLTNYSVTDLNVQRKAIHELIQVMAELSPAAKTGKRKRSQMLFRG
Expression level (human GM3 synthase mRNA, relative value) (human GM3 synthase [3]; hIFN-γ 10 ng/mL): 2.6
Expression level (human GM3 synthase mRNA, relative value) (human GM3 synthase [3]; hIFN-γ 30 ng/mL): 2.4
